Laboratory results published in patent US20130252988A1, “COMPOSITIONS AND METHODS FOR TREATING MYELOFIBROSIS” (TARGEGEN, INC., priority 2010, published 2013).
Where a name gives a salt, the structure may show the parent alone. Read-outs that look alike come from different tables or passages of the source.

Legend:
Assay type in all cases: in vivo, human
[1] = test system: subjects with myelofibrosis (palpable splenomegaly); assay: Palpable spleen size / splenomegaly response (IWG-MRT criteria); conditions: for Subjects with =50% decrease in palpable spleen size persistent for at least 8 weeks (Clinical Improvement, CI) / Subjects with a minimum 25% decrease in palpable spleen size: by cycle 6; for Subjects with a minimum 25% decrease in palpable spleen size: intent-to-treat; for Subjects with spleen response (CI): by cycle 12
Method: Responses were measured every 4 weeks per International Working Group for MPN Research and Treatment (IWG-MRT) criteria (Tefferi A et al., Blood 108:1497-1503, 2006). Assessment of bone marrow histology was performed at baseline and every 24 weeks of therapy. Changes in JAK2V617F allele burden in the granulocyte fraction of peripheral blood were measured as previously described (Kittur J et al., Cancer 109:2279-2284, 2007); the assessments were at baseline and every 4 weeks during the first 6 cycles, and every 6th cycle of therapy in the extension study.

[2] = Plasma pharmacokinetics of TG101348, non-compartmental analysis; conditions: for AUC(0-t) / Cmax / half-life / Tmax: human, plasma; for Tmax: median
Method: The concentration-time curves of TG101348 in plasma were evaluated by a non-compartmental analysis (with the use of WinNonlin® software, version 5.2).

WBC count = assay: Leukocytosis: WBC count; conditions: for Subjects who achieved a normal WBC count: following 6 cycles; for Subjects with normal WBC counts: following 12 cycles
[3] = oral, 30 mg/day (n = 3), multiple daily doses, Cycle 1, Day 28, mean
[4] = oral, 60 mg/day (n = 3), multiple daily doses, Cycle 1, Day 28, mean
[5] = oral, 120 mg/day (n = 3), multiple daily doses, Cycle 1, Day 28, mean
[6] = oral, 240 mg/day (n = 3), multiple daily doses, Cycle 1, Day 28, mean
[7] = oral, 360 mg/day (n = 3), multiple daily doses, Cycle 1, Day 28, mean
[8] = oral, 520 mg/day (n = 3), multiple daily doses, Cycle 1, Day 28, mean
[9] = oral, 680 mg/day (n = 27), multiple daily doses, Cycle 1, Day 28, mean
[10] = oral, 800 mg/day (n = 5), multiple daily doses, Cycle 1, Day 28, mean
[11] = over a 27-fold increase in dose

Cc1cnc(Nc2ccc(OCCN3CCCC3)cc2)nc1Nc1cccc(S(=O)(=O)NC(C)(C)C)c1 [TG101348, N-tert-butyl-3-[(5-methyl-2-{[4-(2-pyrrolidin-1-ylethoxy)phenyl]amino}pyrimidin-4-yl)amino]benzenesulfonamide dihydrochloride monohydrate]
Subjects with JAK2V617F-negative MF who achieved CI ([1]; Three of 4 subjects who completed 6 cycles): 75%
Median time to CI ([1]; across doses, range 41 to 171): 141 days
Patients with reduction in palpable spleen size of at least 50% ([1]; at 3 months, 33 patients who started at =680 mg and completed at least 3 cycles, 22 patients): 67%
Patients in whom the spleen became non-palpable ([1]; at 3 months, 33 patients who started at =680 mg, 9 patients): 27%
Relapse or disease progression ([1]; at the time of data collection (Example 2)): no relapse or disease progression
Subjects with =50% decrease in palpable spleen size persistent for at least 8 weeks (Clinical Improvement, CI) ([1]; MTD cohort): 45%
Subjects with a minimum 25% decrease in palpable spleen size ([1]; MTD cohort): 65%
Subjects with =50% decrease in palpable spleen size persistent for at least 8 weeks (Clinical Improvement, CI) ([1]; overall): 39%
Subjects with a minimum 25% decrease in palpable spleen size ([1]; overall (36 subjects)): 61%
Subjects with spleen response (CI) ([1]; MTD cohort): 50%
Subjects with spleen response (CI) ([1]; overall): 48%
Lowest starting dose at which CI was observed ([1]; in vivo): 240 mg/day
Palpable spleen size after treatment ([1]; one subject with JAK2V617F-positive PMF, started at 680 mg/day, 9 cm before): 0 cm
Mean (standard deviation) duration of spleen response per IWG-MRT criteria ([1]; overall): 315 (±129) days
Onset of spleen response ([1]; rapid, generally seen within): ≤ 2 cycles
Dose proportionality of plasma PK parameters (Cmax and AUC0-t) ([2]; 30 to 800 mg/day): greater than dose-proportional increases
AUC(0-t) [2, 3]: 807 ng·h/mL
Cmax [2, 3]: 81.8 ng/mL
half-life ([2]; oral, 30 mg/day (n = 3), multiple daily doses, Cycle 1, Day 28, mean, read-out: T1/2 (terminal half-life) (converted)): 20.9 h
Tmax ([2]; oral, 30 mg/day (n = 3), multiple daily doses, Cycle 1, Day 28): 2 h
AUC(0-t) [2, 4]: 2430 ng·h/mL
Cmax [2, 4]: 257 ng/mL
half-life ([2]; oral, 60 mg/day (n = 3), multiple daily doses, Cycle 1, Day 28, mean, read-out: T1/2 (terminal half-life) (converted)): 15.7 h
Tmax ([2]; oral, 60 mg/day (n = 3), multiple daily doses, Cycle 1, Day 28): 1 h
AUC(0-t) [2, 5]: 7650 ng·h/mL
Cmax [2, 5]: 557 ng/mL
half-life ([2]; oral, 120 mg/day (n = 3), multiple daily doses, Cycle 1, Day 28, mean, read-out: T1/2 (terminal half-life) (converted)): 24.4 h
Tmax ([2]; oral, 120 mg/day (n = 3), multiple daily doses, Cycle 1, Day 28): 2 h
AUC(0-t) [2, 6]: 26200 ng·h/mL
Cmax [2, 6]: 1800 ng/mL
half-life ([2]; oral, 240 mg/day (n = 3), multiple daily doses, Cycle 1, Day 28, mean, read-out: T1/2 (terminal half-life) (converted)): 20.8 h
Tmax ([2]; oral, 240 mg/day (n = 3), multiple daily doses, Cycle 1, Day 28): 2 h
AUC(0-t) [2, 7]: 23900 ng·h/mL
Cmax [2, 7]: 1720 ng/mL
half-life ([2]; oral, 360 mg/day (n = 3), multiple daily doses, Cycle 1, Day 28, mean, read-out: T1/2 (terminal half-life) (converted)): 21.4 h
Tmax ([2]; oral, 360 mg/day (n = 3), multiple daily doses, Cycle 1, Day 28): 2 h
AUC(0-t) [2, 8]: 61700 ng·h/mL
Cmax [2, 8]: 3890 ng/mL
half-life ([2]; oral, 520 mg/day (n = 3), multiple daily doses, Cycle 1, Day 28, mean, read-out: T1/2 (terminal half-life) (converted)): 20.9 h
Tmax ([2]; oral, 520 mg/day (n = 3), multiple daily doses, Cycle 1, Day 28): 4 h
AUC(0-t) [2, 9]: 55100 ng·h/mL
Cmax [2, 9]: 3060 ng/mL
half-life ([2]; oral, 680 mg/day (n = 27), multiple daily doses, Cycle 1, Day 28, mean, read-out: T1/2 (terminal half-life) (converted)): 33.7 h
Tmax ([2]; oral, 680 mg/day (n = 27), multiple daily doses, Cycle 1, Day 28): 4 h
AUC(0-t) [2, 10]: 70800 ng·h/mL
Cmax [2, 10]: 4380 ng/mL
half-life ([2]; oral, 800 mg/day (n = 5), multiple daily doses, Cycle 1, Day 28, mean, read-out: T1/2 (terminal half-life) (converted)): 24 h
Tmax ([2]; oral, 800 mg/day (n = 5), multiple daily doses, Cycle 1, Day 28): 2.25 h
half-life ([2]; oral, across all doses, read-out: Terminal phase half-life at steady state): 16 to 34 h
Time after dosing at which peak plasma concentration was achieved ([2]; oral, once daily): 1 to 4 h
Increase in mean steady-state AUC0-t [2, 11]: ~88 fold
Increase in mean steady-state Cmax [2, 11]: approximately 54 fold
Patients with a normal WBC count at last follow-up visit (WBC count; Example 1, leukocytosis at baseline, started at =680 mg): 70%
Subjects with normal WBC counts at follow-up visit (WBC count; Example 2, baseline WBC count >11×10^9/L): 73%
Anti-myeloproliferation activity: resolution of leukocytosis and thrombocytosis (WBC count; Example 2 conclusions): virtually all treated subjects experiencing complete resolution of leukocytosis and thrombocytosis
Subjects who achieved a normal WBC count (WBC count; MTD cohort (13 of 18)): 72%
Subjects who achieved a normal WBC count (WBC count; across doses (16 of 28 with baseline leukocytosis)): 57%
Subjects with normal WBC counts (WBC count; MTD cohort (10 of 17)): 59%
Subjects with normal WBC counts (WBC count; across doses (14 of 25)): 56%
